# Experimental data: patent US10898504B2, “Substituted nucleoside analogues for use as PRMT5 inhibitors” (Janssen Pharmaceutica NV, priority 2016, dated 2021)
# “And” between values parts separate entries of the source, which are not always exact repeats. Equal values may be shown once.
# Legend:
# [1] = molecular target: T1, PRMT5-MEP50 enzyme (Homo sapiens, UniProt O14744); assay: In vitro assay (Assay 1): PRMT5-MEP50 high throughput mass spectrometer assay, inhibition of SAH formation; format: biochemical; conditions: individual measurements shown, read-out: pIC50 Assay 1 (converted)
# T1 construct: One virus expresses full length human PRMT5 with Flag-tag at N-terminus
# Source text: EXPERIMENTAL PROCEDURES IN VITRO ASSAY (ASSAY 1)
# PRMT5-MEP50 enzyme was purchased from Charles River (Argenta). The enzyme complex was produced in insect cells (Sf9) infected simultaneously with two baculoviruses. One virus expresses full length human PRMT5 with Flag-tag at N-terminus, the second virus expresses full length MEP50 with His6-TEV cleavage at N-terminus. The protein was affinity purified using anti-Flag (M2) beads eluted with 3×FLAG peptide, followed by His-Select eluted with 0.5M imidazole. Eluted protein was then dialysed against tris-buffered saline (TBS) (pH 8.0) containing 20% glycerol and 3 mM dithiothreitol (DTT).
# Full-length untagged human recombinant histone H2A (residues 1-130, Genbank Accession #NM_021052, MW=14.1 kDa) expressed in E. coli was purchased from Reaction Biology Corporation, Cat #HMT-11-146. Reagents used for making reaction buffer or stopping reaction were purchased including Tris base (Sigma Cat #T-1503), NaCl (Sigma Cat #RGF-3270), MgCl2 (Sigma Cat #M0250), DTT (Invitrogen Cat #15508-013) and Formic Acid (Riedel deHaen, Cat #33015)
# High Throughput Mass Spectrometer Assay
# PRMT5 catalyzes the sequential methylations of the terminal nitrogen atoms on the guanidine groups of arginine residues within proteins using co-substrate S-adenosyl-L-methionine (AdoMet, SAM), forming mono-methyl (MMA), symmetric-dimethyl arginine (sDMA) and S-adenosyl-L-homocysteine (AdoHcy, SAH). The enzyme activity was determined by following the product SAH formation using high throughput mass spectrometry (Agilent Rapidfire 300 System coupled to a Sciex 4000 series QTrapm triple-quad MS/MS). The reaction buffer was 20 mM Tris-HC, pH 8.5, 50 mM NaCl, 5 mM MgCl2 and 1 mM DTT. The reaction activity was stopped using 1% formic acid (final concentration).
# The IC50 Studies were performed using eleven point dosing series made for each compound by serially diluted 1:2 in dimethyl sulfoxide (DMSO), with point 12 being a DMSO control. Compounds were first spotted to plates, and followed by addition of 2 μM SAM and 0.6 μM H2A (histone H2A) solution mixture. The same volume of enzyme solution was added to initiate the enzymatic reactions. The final concentrations of the reaction are at 1 μM SAM, 0.3 μM H2A and 10 nM enzyme. The reaction was incubated at 30° C. for 60 minutes (min) and then quenched by addition of formic acid to a final concentration of 1%. The inhibitions of SAH formation in the presence of compounds were calculated as a percentage of the control relative to the uninhibited reaction as a function of inhibitor concentration. The data were fit as follows: Y=Bottom+(Top−Bottom)/(1+10^((log IC50−X)*h))
# where IC50 is the inhibitor concentration (same unit as X) at 50% inhibition and h is the Hill slope. Y is percent of inhibition, X is log of compound concentration. Bottom and Top are the plateaus in same units as Y.
# [2] = test system: A549 cells; assay: PD assay (Assay 2): inhibition of nuclear symmetric Arginine dimethylation (SYM10 immunohistochemistry) in A549 cells; format: cell-based; conditions: individual measurements shown; for IC50: Homo sapiens, A549, PD assay in A549 cells, read-out: pIC50 Assay 2 (converted); for pIC50 Assay 2: PD assay in A549 cells
# Procedure: EXPERIMENTAL PROCEDURE PD ASSAY (ASSAY 2)
# A549 cells (ATCC, Cat #CCL-185) were cultured in Dulbecco's Modified Eagle's Medium (DMEM) (Sigma, Cat #D5796), supplemented with 10% Fetal Calf Serum (FCS)(HyClone™, Cat #SV30160.03), 100 mM Sodium Pyruvate (Sigma, Cat #S8636), 200 mM L-Glutamine (Sigma, Cat #G7513) and 50 mg/mL Gentamycing (Gibco, Cat #15750-037).
# Reagents used for buffers were purchased: Dulbecco's phosphate buffered saline (DPBS) without Ca/Mg (Sigma, Cat #D8537), phosphate buffered saline (PBS) 10× (Roche, Cat #11 666 789 001), Formalin solution 10% (Sigma, HT50-1-128-4L), MeOH 100% (Sigma, Cat #32213-2.5L), Triton X-100 (Acros, Cat #215680010), Bovine Serum Albumin (BSA) (Sigma, Cat #A2153), Alexa fluor 488 goat anti-rabbit antibody (Life Technologies, Cat #A11034), HCS CellMask Deep Red Stain (Life Technologies, Cat #H32721), Hoechst Stain (Life Technologies, Cat #33258), Anti-dimethyl-Arginine, sym (SYM10) antibody (Millipore, 07-412).
# Immunohistochemistry Procedure
# Cells were plated at 400 cells/40 μL/well in 384 well black plates μclear bottom (Perkin Elmer) and overnight incubated at 37° C., 5% CO2. The IC50 Studies were performed using nine point dosing series ranging from 10 μM to […] for each compound. 80 nL of the respective dilution of the compounds was added using the Labcyte POD 810 (Labcyte) reaching a final DMSO concentration of 0.2% in cell culture. After an incubation period of 48 h at 37° C. and 5% CO2, cells were fixed in 10% formalin solution for 15 min at r.t. and 20 min in ice-cold MeOH, after which they were washed 3× in DPBS. Subsequently, the cells were blocked for 1 h in blocking buffer (PBS+1% BSA and 0.5% Triton X-100) and incubated overnight at 4° C. with the SYM10 antibody diluted 1/2000 in blocking buffer. The cells were washed 3× with washing buffer (PBS+0.1% Triton X-100) and incubated with the Alexa fluor 488 goat anti-rabbit antibody diluted 1/200 in blocking buffer for 1 h at r.t. Subsequently, they were washed 3× with washing buffer and incubated for 30 min at r.t. with PBS containing a 1/5000 dilution of Hoechst Stain and a 1/5000 dilution of the HCS CellMask Deep Red Stain. After a final wash with PBS, the plates were imaged using the 10×W lens of the Opera® system (Perkin Elmer Life Sciences) using following settings (values in nm):
# In the above equations, the following variable names are use: […]
# In the above equations, the following controls were used for normalization: […]
# Low control: minimum level of symmetrically dimethylated Arginines (cells treated with reference compound at 10 μM).
# High control: maximum level of symmetrically dimethylated Arginines (DMSO treated cells).
# IC50 and pIC50 (−log IC50) values were calculated using the appropriate software.
# pIC50 values (Co. No. means compound number; n.d. means not determined).
# T1 sequence (O14744 whole entry): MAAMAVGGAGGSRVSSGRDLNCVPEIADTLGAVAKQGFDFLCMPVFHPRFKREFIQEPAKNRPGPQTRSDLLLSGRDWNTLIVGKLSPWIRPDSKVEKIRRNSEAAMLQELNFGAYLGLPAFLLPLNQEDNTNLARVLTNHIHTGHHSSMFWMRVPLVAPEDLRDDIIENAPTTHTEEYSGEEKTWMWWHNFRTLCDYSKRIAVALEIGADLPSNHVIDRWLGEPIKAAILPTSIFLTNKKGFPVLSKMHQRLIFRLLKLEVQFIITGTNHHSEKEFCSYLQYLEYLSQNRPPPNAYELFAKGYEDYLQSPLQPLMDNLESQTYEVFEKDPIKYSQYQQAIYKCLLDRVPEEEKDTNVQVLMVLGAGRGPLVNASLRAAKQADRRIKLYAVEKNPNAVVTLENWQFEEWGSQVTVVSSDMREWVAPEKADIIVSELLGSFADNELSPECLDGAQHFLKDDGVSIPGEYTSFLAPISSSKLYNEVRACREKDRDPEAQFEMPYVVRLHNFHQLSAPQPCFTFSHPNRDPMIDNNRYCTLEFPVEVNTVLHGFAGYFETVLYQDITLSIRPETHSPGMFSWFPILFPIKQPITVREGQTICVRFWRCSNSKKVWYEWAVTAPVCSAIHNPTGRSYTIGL
# T1 sequence (Q9BQA1 whole entry partner): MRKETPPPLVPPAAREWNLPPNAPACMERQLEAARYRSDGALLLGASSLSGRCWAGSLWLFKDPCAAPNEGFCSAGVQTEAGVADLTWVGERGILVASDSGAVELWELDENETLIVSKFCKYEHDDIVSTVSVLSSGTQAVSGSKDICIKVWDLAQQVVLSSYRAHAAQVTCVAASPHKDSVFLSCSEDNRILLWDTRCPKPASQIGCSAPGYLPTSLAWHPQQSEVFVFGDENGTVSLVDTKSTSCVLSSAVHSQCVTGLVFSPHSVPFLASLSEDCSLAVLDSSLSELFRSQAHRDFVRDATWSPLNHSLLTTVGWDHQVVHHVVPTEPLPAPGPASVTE
IC50 [1],IC50 [2] [nM],pIC50 Assay 2 [2],SMILES
51.3 nM,562,,NC[C@@H]1CC(F)(F)CN1C[C@H]1O[C@@H](n2ccc3c(N)cccc32)[C@H](O)[C@@H]1O [Compound 71b]
53.7 nM,~3550,,NC[C@@H]1COCCN1C[C@H]1O[C@@H](n2ccc3c(N)ncnc32)[C@H](O)[C@@H]1O [Compound 72]
209 nM,2450,,NC[C@H]1CC(F)(F)CN1C[C@H]1O[C@@H](n2ccc3c(N)ncnc32)[C@H](O)[C@@H]1O [Compound 73b]
37.2 nM and 35.5 nM,372,~6.51,CN1CC2(CCCN(C[C@H]3O[C@@H](n4ccc5c(N)ncnc54)[C@H](O)[C@@H]3O)C2)C1 [Compound 74]
39800 nM,> 10000,,Nc1ncnc2c1ncn2[C@@H]1O[C@H](CN2CCC3(CCNCC3)C2)[C@@H](O)[C@H]1O [Compound 75]
89.1 nM and 32.4 nM and 24.5 nM,,~5.65 and ~5.97,Nc1ncnc2c1ncn2[C@@H]1O[C@H](CN2CCCC23CCNCC3)[C@@H](O)[C@H]1O [Compound 76]
2820 nM,> 10000,,Nc1ncnc2c1ncn2[C@@H]1O[C@H](CN2CCC3(CCCN3)C2)[C@@H](O)[C@H]1O (stereo partly shown) [Compound 78]
21400 nM,> 10000,,Nc1ncnc2c1ncn2[C@@H]1O[C@H](CN2CC3(CCCNC3)C2)[C@@H](O)[C@H]1O [Compound 79]
3310 nM,> 10000,,Nc1ncnc2c1ncn2[C@@H]1O[C@H](CN2CCCCC23CNC3)[C@@H](O)[C@H]1O [Compound 80]
355 nM,8130,,Nc1ncnc2c1ncn2[C@@H]1O[C@H](CN2CCC23CCNCC3)[C@@H](O)[C@H]1O [Compound 81]
126 nM,2340,,Nc1ncnc2c1ncn2[C@@H]1O[C@H](CN2CCCC3(CNC3)C2)[C@@H](O)[C@H]1O [Compound 82]
44700 nM,> 10000,,Nc1ncnc2c1ncn2[C@@H]1O[C@H](CN2CC3(CCCN3)C2)[C@@H](O)[C@H]1O [Compound 83]
77600 nM,> 10000,,Nc1ncnc2c1ncn2[C@@H]1O[C@H](CN2CC3(CCNC3)C2)[C@@H](O)[C@H]1O [Compound 84]
417 nM,> 10000,,Nc1ncnc2c1ncn2[C@@H]1O[C@H](CN2CCC3(CNC3)C2)[C@@H](O)[C@H]1O [Compound 86]
2400 nM,> 10000,,Nc1ncnc2c1ncn2[C@@H]1O[C@H](CN2CCC23CCNC3)[C@@H](O)[C@H]1O (stereo partly shown) [Compound 87]
46800 nM,> 10000,,Nc1ncnc2c1ncn2[C@@H]1O[C@H](CN2CC3(CCN3)C2)[C@@H](O)[C@H]1O [Compound 88]
2750 nM,> 10000,,Nc1ncnc2c1ncn2[C@@H]1O[C@H](CN2CCC23CNC3)[C@@H](O)[C@H]1O [Compound 89]

IC50 [1],IC50 [2] [nM],pIC50 Assay 2 [2],SMILES
70800 nM,> 10000,,CN1CCC2(CC1)CN(C[C@H]1O[C@@H](n3cnc4c(N)ncnc43)[C@H](O)[C@@H]1O)C2 [Compound 90]
1230 nM,> 10000,,Nc1ncnc2c1ncn2[C@@H]1O[C@H](CN2CCCC23CNC3)[C@@H](O)[C@H]1O [Compound 91]
126 nM,~1380,,CN1CC2(C1)CN(C[C@H]1O[C@@H](n3ccc4c(N)ncnc43)[C@H](O)[C@@H]1O)CCO2 [Compound 92]
3020 nM,~2450,,Nc1ncnc2c1ccn2[C@@H]1O[C@H](CN2CCOC3(C2)CN(Cc2ccc(Cl)cc2)C3)[C@@H](O)[C@H]1O [Compound 93]
> 10000 nM,~50.1,,CC(C)C(=O)O[C@@H]1[C@H](OC(=O)C(C)C)[C@@H](CN2CCCC23CCNCC3)O[C@H]1n1ccc2c(N)ncnc21 [Compound 94]
> 10000 nM,,6.94 and 6.95,CC(C)C(=O)O[C@@H]1[C@H](OC(=O)C(C)C)[C@@H](CN2CCCC23CCN(C)CC3)O[C@H]1n1ccc2c(N)ncnc21 [Compound 95a]
> 100000 nM,,~7.34 and 7.05,CC(C)C(=O)O[C@@H]1[C@H](OC(=O)C(C)C)[C@@H](CN2CCCC23CCN(C)CC3)O[C@H]1n1ccc2c(N)ncnc21 [Compound 95b]
631 nM,20.4,,CC(C)C(=O)O[C@H]1[C@@H](O)[C@H](n2ccc3c(N)ncnc32)O[C@@H]1CN1CCCC12CCN(C)CC2 [Compound 96]
174 nM,204,,CC(=O)O[C@H]1[C@@H](O)[C@H](n2ccc3c(N)ncnc32)O[C@@H]1CN1CCCC12CCN(C)CC2 [Compound 99]
> 10000 nM,,6.46,CC(C)C(=O)O[C@@H]1[C@H](OC(=O)C(C)C)[C@@H](CN2CC(F)(F)CC23CCN(C)CC3)O[C@H]1n1ccc2c(N)ncnc21 [Compound 103]
> 10000 nM,1580,,CC(C)C(=O)O[C@@H]1[C@H](OC(=O)C(C)C)[C@@H](CN2CCCC23CCN(C)CC3)O[C@H]1c1ccc2c(N)ncnn12 [Compound 104]
> 10000 nM,6610,,CC(C)C(=O)O[C@@H]1[C@H](OC(=O)C(C)C)[C@@H](CN2CC(F)(F)CC23CCN(C)CC3)O[C@H]1c1ccc2c(N)ncnn12 [Compound 105]
> 10000 nM,19500,,CC(C)C(=O)O[C@@H]1[C@@H](CN2CC(F)(F)CC23CCN(C)CC3)C[C@@H](n2ccc3c(N)ncnc32)[C@@H]1OC(=O)C(C)C [Compound 106]
> 10000 nM,126,,CC(C)C(=O)O[C@@H]1[C@H](OC(=O)C(C)C)[C@@H](CN2CC(F)(F)CC23CCNCC3)O[C@H]1c1ccc2c(N)ncnn12 [Compound 107]
25.7 nM,204,,Nc1ncnc2c1ccn2[C@@H]1O[C@H](CN2CCOCC23CCNCC3)[C@@H](O)[C@H]1O [Compound 108]
2240 nM,> 10000,,Nc1ncnn2c([C@@H]3O[C@H](CN4CCOC5(CNC5)C4)[C@@H](O)[C@H]3O)ccc12 [Compound 109]
